Test results as given in the supplement of paper PMC10307832.

What was measured:
Assay in all cases: relative viability (nuclei count vs DMSO), 5 days (fraction); higher = more cells survive
Seliciclib + OSI-027 = compound: CC[C@H](CO)Nc1nc(NCc2ccccc2)c2ncn(C(C)C)c2n1 [Seliciclib] + COc1cccc2cc(-c3nc([C@H]4CC[C@H](C(=O)O)CC4)n4ncnc(N)c34)[nH]c12 [OSI-027] (partner 0.5 µM)
Summary of the method: (§1)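 Lung cancer cell lines were seeded in 1536-well plates and dosed by pin tool the next day, with either a single drug or a fixed anchor-drug dose combined with five library-drug doses (not always all listed) spaced in √10 steps. Five days later, one step fixed the cells and stained their nuclei (final 0.05% Triton X-100, 1% formaldehyde, 1 ug/ml Hoechst), and nuclei were counted on 4× images. Relative viability is the nuclei count in treated wells divided by the count in vehicle wells, and each value is the median of duplicate plates.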

Seliciclib + Trametinib = compound: CC[C@H](CO)Nc1nc(NCc2ccccc2)c2ncn(C(C)C)c2n1 [Seliciclib] + CC(=O)Nc1cccc(-n2c(=O)n(C3CC3)c(=O)c3c(Nc4ccc(I)cc4F)n(C)c(=O)c(C)c32)c1 [Trametinib] (partner 0.02 µM)
Summary of the method: as §1

Seliciclib + Phenformin = compound: CC[C@H](CO)Nc1nc(NCc2ccccc2)c2ncn(C(C)C)c2n1 [Seliciclib] + N=C(N)NC(=N)NCCc1ccccc1 [Phenformin] (partner 250 µM)
Summary of the method: as §1

Seliciclib + Crizotinib = compound: CC[C@H](CO)Nc1nc(NCc2ccccc2)c2ncn(C(C)C)c2n1 [Seliciclib] + C[C@@H](Oc1cc(-c2cnn(C3CCNCC3)c2)cnc1N)c1c(Cl)ccc(F)c1Cl [Crizotinib] (partner 1 µM)
Summary of the method: as §1

| Cell Line | relative viability (Seliciclib + OSI-027; first compound 0.08 µM) | relative viability (Seliciclib + OSI-027; first compound 0.253 µM) | relative viability (Seliciclib + OSI-027; first compound 0.8 µM) | relative viability (Seliciclib + OSI-027; first compound 2.53 µM) | relative viability (Seliciclib + OSI-027; first compound 8 µM) | relative viability (Seliciclib + Trametinib; first compound 0.08 µM) | relative viability (Seliciclib + Trametinib; first compound 0.8 µM) | relative viability (Seliciclib + Trametinib; first compound 2.53 µM) | relative viability (Seliciclib + Trametinib; first compound 8 µM) | relative viability (Seliciclib + Phenformin; first compound 0.08 µM) | relative viability (Seliciclib + Phenformin; first compound 0.253 µM) | relative viability (Seliciclib + Phenformin; first compound 0.8 µM) | relative viability (Seliciclib + Phenformin; first compound 2.53 µM) | relative viability (Seliciclib + Phenformin; first compound 8 µM) | relative viability (Seliciclib + Crizotinib; first compound 0.08 µM) | relative viability (Seliciclib + Crizotinib; first compound 0.253 µM) | relative viability (Seliciclib + Crizotinib; first compound 0.8 µM) | relative viability (Seliciclib + Crizotinib; first compound 2.53 µM) | relative viability (Seliciclib + Crizotinib; first compound 8 µM) | relative viability (Seliciclib + Trametinib; first compound 0.253 µM) |
| --- | --- | --- | --- | --- | --- | --- | --- | --- | --- | --- | --- | --- | --- | --- | --- | --- | --- | --- | --- | --- |
| NCI-H2170 | 0.754 | 0.639 | 0.724 | 0.691 | 0.708 | 0.85 | 0.884 | 0.927 | 0.888 | 0.393 | 0.489 | 0.354 | 0.436 | 0.411 | 1.1 | 0.873 | 1.18 | 1.4 | 1.11 | – |
| NCI-H2228 | 0.594 | 0.437 | 0.617 | 0.473 | 0.404 | 0.504 | 0.498 | 0.497 | 0.528 | 0.322 | 0.209 | 0.287 | 0.275 | 0.257 | 0.505 | 0.414 | 0.383 | 0.672 | 0.396 | 0.204 |
| NCI-H2347 | 0.431 | 0.475 | 0.452 | 0.339 | 0.343 | 0.259 | 0.331 | 0.278 | 0.279 | 0.536 | 0.397 | 0.319 | 0.298 | 0.408 | 0.711 | 0.741 | 0.742 | 0.763 | 0.595 | 0.323 |
| NCI-H2405 | 0.616 | 0.669 | 0.689 | 0.291 | 0.555 | 0.631 | 0.664 | 0.509 | 0.591 | 0.362 | 0.399 | 0.319 | 0.324 | 0.355 | 0.755 | 0.841 | 0.807 | 0.877 | 0.794 | 0.44 |
| NCI-H3122 | 0.979 | 0.53 | 0.769 | 0.744 | 0.778 | 0.225 | 0.234 | 0.211 | 0.221 | 0.374 | 0.439 | 0.368 | 0.384 | 0.353 | 0.294 | 0.258 | 0.311 | 0.231 | 0.301 | 0.136 |
| PC-3 [JPC-3] | 0.727 | 0.761 | 0.716 | 0.65 | 0.672 | 0.754 | 0.721 | 0.577 | 0.528 | 0.477 | 0.459 | 0.453 | 0.49 | 0.433 | 0.998 | 0.994 | 0.95 | 0.921 | 0.861 | 0.861 |
| PC-14 | 0.844 | 0.736 | 0.749 | 0.494 | 0.709 | 0.788 | 0.719 | 0.721 | 0.532 | 0.665 | 0.431 | 0.553 | 0.463 | 0.319 | 0.865 | 0.846 | 0.78 | 0.991 | 0.759 | 0.529 |
| RERF-LC-KJ | 0.58 | 0.582 | 0.555 | 0.407 | 0.508 | 0.872 | 0.807 | 0.824 | 0.744 | 0.44 | 0.432 | 0.401 | 0.44 | 0.345 | 0.803 | 0.787 | 0.785 | 0.85 | 0.786 | 0.748 |
| SK-LU-1 | 0.38 | 0.378 | 0.433 | 0.239 | 0.233 | 0.548 | 0.54 | 0.601 | 0.415 | 0.532 | 0.582 | 0.647 | 0.435 | 0.413 | 0.874 | 0.987 | 1.03 | 0.892 | 0.688 | 0.426 |
| SK-MES-1 | 0.63 | 0.655 | 0.593 | 0.462 | 0.45 | 0.478 | 0.55 | 0.602 | 0.504 | 0.686 | 0.755 | 0.619 | 0.672 | 0.635 | 1 | 1 | 0.891 | 0.96 | 0.914 | 0.482 |
| SW 1573 | 0.606 | 0.491 | 0.728 | 0.598 | 0.466 | 0.561 | 0.566 | 0.57 | 0.341 | 0.373 | 0.24 | 0.346 | 0.384 | 0.311 | 0.823 | 0.759 | 0.77 | 0.847 | 0.642 | 0.48 |
| UMC-11 | 0.537 | 0.503 | 0.48 | 0.153 | 0.422 | 0.726 | 0.877 | 0.657 | 0.581 | 0.341 | 0.343 | 0.322 | 0.272 | 0.232 | 0.654 | 0.558 | 0.672 | 0.712 | 0.404 | 0.593 |
